The values below come from PMC3581553, “New Approaches of PARP-1 Inhibitors in Human Lung Cancer Cells and Cancer Stem-Like Cells by Some Selected Anthraquinone-Derived Small Molecules” (PLoS ONE, 2013).

Like-named read-outs stand apart in the source and are kept apart here.

One assay deals with A549/ATCC. As to the kind of experiment: NCI-60 drug screen (SRB), NSCLC line A549/ATCC. Format: cell-based, human. To be noted: for LC50 (concentration killing 50% of cells) / GI50: Homo sapiens. How it is done:
(§1) As a primary screening, seven selected compounds were submitted to the National Cancer Institute (NCI) cell lines screen for evaluation of their anticancer activity. From the data analysis, it follows that approximately 95% of the actives from the 60 cell lines screen can be identified. The detailed methods used for the 60 cell lines panel have been described elsewhere [54]–[59]. Briefly, cellular protein levels were determined after 48 hours of drug exposure by SRB colorimetry. Through the use of a time zero cell control, the cell growth can be determined for each cell line thus allowing calculations of GI50, TGI, and LC50. Comparison to plates not exposed to drug permits determination of concentration and times of exposure conferring GI50, TGI, and LC50. […] By these criteria, seven compounds reported from our compounds bank were all active and passed on for evaluation in the full panel of 60 human tumor cell lines. The panel is organized into nine subpanels representing diverse histology: leukemia, melanoma, and cancers of the lung, colon, kidney, ovary, breast, prostate, and central nervous system.

The subject of the next assay is HOP-92. As to the kind of experiment: NCI-60 drug screen (SRB), NSCLC line HOP-92. To be noted: for GI50 / CC50: Homo sapiens; for CC50: read-out: LC50 (the source's name). Type of assay: cell-based, human. How it is done: as §1
Another assay has as its system NCI-H23. As to the kind of experiment: NCI-60 drug screen (SRB), NSCLC line NCI-H23. Format: cell-based, human. The following applies: for GI50 / CC50: Homo sapiens; for CC50: read-out: LC50 (the source's name). How it is done:
as §1

The test system of assay [1] is Oct-4- and Nanog-overexpressed A549 clone (A3). Nature of the assay: MTT cytotoxicity assay, A3 cells. Format: cell-based. The following applies: Homo sapiens, 48 h of drug exposure. The method, then:
Non-small cell lung cancer cells A549 and Oct-4- and Nanog-overexpressed A549 clone (clone #3; A3), presented the properties of cancer stem-like cells, as well as epithelial-mesenchymal transdifferentiation, according to our previous study. They were grown in the same conditions as RPMI 1640 media supplemented with 10% fetal bovine serum (FBS), 100 units/mL penicillin, […] streptomycin, 1 mM sodium pyruvate, 2 mM l-glutamine and 1% non-essential amino acid (NEAA) in a humidified atmosphere with 5% CO2 at 37°C. Normal fibroblast cells HEL299 from American Type Culture Collection (ATCC) were grown in MEM media supplemented with 10% FBS, 100 units/mL penicillin, […] streptomycin, 1 mM sodium pyruvate, 2 mM l-glutamine and 1% NEAA, in a humidified atmosphere with 5% CO2 at 37°C.
The tetrazolium reagent (MTT; 3-(4,5-dimethylthiazol-2-yl)-2,5-diphenyl-tetrazolium bromide, USB) was designed to yield a colored formazan upon metabolic reduction by viable cells, [61]. Approximately 5×10^4 cells were plated onto each well of a 24-well plate and incubated in 5% CO2 at 37°C for 24 hours. To assess the in vitro cytotoxicity, each compound was dissolved in DMSO and prepared immediately before the experiments and then was diluted into the complete medium before being added to cell cultures. Test compounds were then added to the culture medium in various designated concentrations. After 48 hours, an amount of 100 µl of MTT was added to each well, and the samples were incubated at 37°C for 2 h. 100 µl DMSO was added to each well. The absorbency at 560 nm and reference absorbency at 670 nm were measured using an ELISA reader.
(In general: Tetrazolium assays rely on reduction of a dye to a coloured formazan, in cell work by metabolically active cells.)

For another assay, the system named is A3 clone. As to the kind of experiment: Sphere formation and cell viability assay in A3 clone. Format: cell-based, human. To be noted: treated A3 clone; for sphere formation: serum free medium with bFGF and EGF (10 ng/ml).
Assay [2] relates to PARP-1 mRNA expression in A3 cells. Nature of the assay: Quantitative RT-PCR of PARP-1 in treated A3 cells. Type of assay: cell-based, human. The source says:
RNA was isolated from cells with the TRIzol (Invitrogen) reagent […], and this was followed by RNA clean up with the RNeasy Minikit (QIAGEN). cDNA was produced with the First Strand cDNA Synthesis Kit (Roche). Real-time quantitative PCR reactions were set up in triplicate with the Brilliant II SYBR Green QPCR Master Mix (Stratagene) and run on an Mx3000P QPCR System (Stratagene).

The subject of a further assay is NCI-60 cancer cell lines. Nature of the assay: NCI-60 panel of human tumor cell lines, median GI50. Format: cell-based. The following applies: median over NCI-60 cancer cell lines, read-out: median 50% growth inhibitory concentration (GI50). The method, then:
as §1

Setting [3] is: 48 hours drug exposure, SRB, read-out: GI50.
Setting [4] is: NCI in vitro 60-cell lines Drug Screen, read-out: -Log GI50 (converted).

Usually TGI stands for the concentration giving total growth inhibition. Low values mean more potent growth arrest, high ones less potent growth arrest. In general, IC50 refers to the midpoint of a concentration-inhibition curve. Higher therefore signals lower potency. For the compound `CN1CCN(Cc2nc3ccc4c(c3[nH]2)C(=O)c2ccccc2C4=O)CC1` [NSC749235], the TGI came to 24.3 µM in the assay with A549/ATCC (48 hours drug exposure, SRB); 91.8 µM with HOP-92 (48 hours drug exposure, SRB); 30.1 µM with NCI-H23 (48 hours drug exposure, SRB). The compound also showed an LC50 (concentration killing 50% of cells) in the assay on A549/ATCC (48 hours drug exposure, SRB) of 67.2 µM. Further, the GI50 was 7580 nM in the assay on A549/ATCC (setting [3]); 7590 nM in the assay with A549/ATCC (setting [4]); 7.97 µM with HOP-92 (setting [3]); 7.94 µM with HOP-92 (setting [4]); 10.7 µM with NCI-H23 (setting [3]); 10.7 µM in the assay with NCI-H23 (setting [4]). In addition, the CC50 is above 100 µM in the assay with HOP-92 (48 hours drug exposure, SRB) and 84.8 µM in the assay with NCI-H23 (48 hours drug exposure, SRB). Moreover, in assay [1], the IC50 was determined as 7.67 µM. The “cell growth / cell viability” value in the assay on A3 clone is “inhibit the cell growth”. Besides, the sphere formation result in the assay on A3 clone is reported as “effectively block the sphere formation”. The “expression levels of PARP-1 (mRNA)” value in assay [2] is “inhibit the expression levels of PARP-1”.

As for `CCN(CC)CCC(=O)Nc1ccc2c(c1)C(=O)c1cc(NC(=O)CCN(CC)CC)ccc1C2=O` [NSC746365], the TGI came out at 3.95 µM in the assay with A549/ATCC (48 hours drug exposure, SRB); 0.06 µM with HOP-92 (48 hours drug exposure, SRB); 3.55 µM in the assay with NCI-H23 (48 hours drug exposure, SRB). Moreover, the LC50 (concentration killing 50% of cells) with A549/ATCC (48 hours drug exposure, SRB) was 15.5 µM. For the same compound, the GI50 with A549/ATCC (setting [3]) is 1440 nM; with A549/ATCC (setting [4]), 1450 nM; in the assay on HOP-92 (setting [3]), 0.01 µM; with HOP-92 (setting [4]), 0.0148 µM; with NCI-H23 (setting [3]), 1.53 µM; in the assay with NCI-H23 (setting [4]), 1.51 µM. Also, the CC50 in the assay on HOP-92 (48 hours drug exposure, SRB) came out at 3.48 µM; in the assay on NCI-H23 (48 hours drug exposure, SRB), 8.27 µM. Also, the IC50 in assay [1] is 5.21 µM.

With `CN(C)CC(=O)Nc1ccc2c(c1)C(=O)c1cc(NC(=O)CN(C)C)ccc1C2=O` [NSC746364], the TGI is on record as 4.43 µM with A549/ATCC (48 hours drug exposure, SRB); 31.7 µM with HOP-92 (48 hours drug exposure, SRB); 28.1 µM in the assay with NCI-H23 (48 hours drug exposure, SRB). This compound came in with an LC50 (concentration killing 50% of cells) with A549/ATCC (48 hours drug exposure, SRB) above 100 µM. The GI50 with A549/ATCC (setting [3]) was 1450 nM; in the assay with A549/ATCC (setting [4]) it was 1450 nM; with HOP-92 (setting [3]) it was 10.4 µM; with HOP-92 (setting [4]) it was 10.5 µM; in the assay with NCI-H23 (setting [3]) it was 11 µM; in the assay with NCI-H23 (setting [4]) it was 11 µM. In addition, the CC50 with HOP-92 (48 hours drug exposure, SRB) turned out to be 96.6 µM; in the assay with NCI-H23 (48 hours drug exposure, SRB), 71.8 µM. Moreover, 5.9 µM corresponded to half-maximal inhibition in assay [1] (IC50).

In the case of `O=C(CCN1CCCC1)Nc1ccc2c(c1)C(=O)c1cc(NC(=O)CCN3CCCC3)ccc1C2=O` [NSC746366], the TGI in the assay with A549/ATCC (48 hours drug exposure, SRB) is 12.7 µM; in the assay on HOP-92 (48 hours drug exposure, SRB), 0.82 µM; with NCI-H23 (48 hours drug exposure, SRB), 17.3 µM. For the same compound, in the assay with A549/ATCC (48 hours drug exposure, SRB), the LC50 (concentration killing 50% of cells) amounted to 74.7 µM. In addition, the GI50 in the assay on A549/ATCC (setting [3]) was 2200 nM; in the assay on A549/ATCC (setting [4]) it was 2190 nM; in the assay on HOP-92 (setting [3]), 0.45 µM; in the assay on HOP-92 (setting [4]), 0.447 µM; in the assay on NCI-H23 (setting [3]), 2.38 µM; with NCI-H23 (setting [4]) it was 2.4 µM. Further, the CC50 in the assay on HOP-92 (48 hours drug exposure, SRB) was 34.6 µM; in the assay with NCI-H23 (48 hours drug exposure, SRB), above 100 µM. The same compound registered an IC50 in assay [1] of 5.77 µM.

For the compound `CN(C)CCCSc1nc2ccc3c(c2[nH]1)C(=O)c1ccccc1C3=O` [NSC747854], the concentration for total growth inhibition (TGI) amounted to 12.6 µM in the assay with A549/ATCC (48 hours drug exposure, SRB) and 19.7 µM in the assay on NCI-H23 (48 hours drug exposure, SRB). The GI50 is 3260 nM in the assay on A549/ATCC (setting [3]); 3240 nM in the assay on A549/ATCC (setting [4]); 5.73 µM with NCI-H23 (setting [3]); 5.75 µM with NCI-H23 (setting [4]); 6.92 µM in the assay with NCI-60 cancer cell lines. The CC50 in the assay with NCI-H23 (48 hours drug exposure, SRB) stood at 46.9 µM. Besides, the IC50 in assay [1] amounted to 5.88 µM. Besides, in the assay on A3 clone, the “cell growth / cell viability” value is “inhibit the cell growth”. Also, the sphere formation result with A3 clone is “effectively block the sphere formation”. In assay [2], the “expression levels of PARP-1 (mRNA)” value is “inhibit the expression levels of PARP-1”.

As to `Cc1ccc(C(=O)Nc2c(NC(=O)CCl)ccc3c2C(=O)c2ccccc2C3=O)cc1` [NSC749232], the TGI with A549/ATCC (48 hours drug exposure, SRB) is given as 29.2 µM; in the assay with HOP-92 (48 hours drug exposure, SRB), 31.7 µM; in the assay on NCI-H23 (48 hours drug exposure, SRB) it was 8.28 µM. For the same compound, the LC50 (concentration killing 50% of cells) in the assay with A549/ATCC (48 hours drug exposure, SRB) was above 100 µM. Besides, the GI50 was 12300 nM with A549/ATCC (setting [3]); 12300 nM with A549/ATCC (setting [4]); 9.73 µM in the assay with HOP-92 (setting [3]); 9.77 µM in the assay on HOP-92 (setting [4]); 1.78 µM with NCI-H23 (setting [3]); 1.78 µM in the assay with NCI-H23 (setting [4]). Besides, the CC50 is above 100 µM with HOP-92 (48 hours drug exposure, SRB) and 31.4 µM with NCI-H23 (48 hours drug exposure, SRB). This compound yielded an IC50 in assay [1] of 4.85 µM. In addition, the “cell growth / cell viability” value in the assay with A3 clone is listed as “inhibit the cell growth”. Further, the sphere formation result in the assay on A3 clone was “effectively block the sphere formation”. The “expression levels of PARP-1 (mRNA)” value in assay [2] is “inhibit the expression levels of PARP-1”.
